Data taken from PubChem BioAssay AID1963837 (Molecular Pharmacology Branch, DTP, NCI, 2024).

test system: 843126-344-R-J1-PDC complex spheroid viability; assay: Anticancer human tumor 843126-344-R-J1-PDC patient-derived melanoma cell line growth inhibition [POLQ]; conditions: second compound 1 µM; first compound 0.1 µM; stronger effect = lower value
Procedure, shortened: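 Patient-derived tumour cells were co-cultured with HUVEC and mesenchymal stem cells as multicellular spheroids at 37 °C. They were treated with POLQ inhibitors (novobiocin, ART-558, RP6685) alone or combined with other agents. Top concentrations were at or near clinical Cmax (otherwise 10 microM; SN-38 at 1 microM), decreasing in half-log steps.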
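Also: spheroids exposed to drugs for seven days before readout.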

For `CC1COCCN1c1cc(-c2ccnn2C)c2ccnc(-c3ccn[nH]3)c2n1` (configuration not stated) + Nc1ccc(C#CCN(C(=O)Cc2ncc(C(F)(F)F)cc2C(F)(F)F)c2ccc(F)cc2)nn1, the viability, T/C was 65.8%.

same assay, conditions: second compound 1 µM; first compound 0.316 µM; stronger effect = lower value

Compared with `CC1COCCN1c1cc(C2(S(C)(=N)=O)CC2)nc(-c2ccnc3[nH]ccc23)n1` (configuration not stated) + Cc1cccc(N(C)C(=O)C2C(O)CCN2c2nc(C)cc(C(F)(F)F)c2C#N)c1, `CC1COCCN1c1cc(-c2ccnn2C)c2ccnc(-c3ccn[nH]3)c2n1` (configuration not stated) + Nc1ccc(C#CCN(C(=O)Cc2ncc(C(F)(F)F)cc2C(F)(F)F)c2ccc(F)cc2)nn1 is lower in viability, T/C: 90.6% for the first, 55.9% for the second.

Going from `C=CCn1c(=O)c2cnc(Nc3ccc(N4CCN(C)CC4)cc3)nc2n1-c1cccc(C(C)(C)O)n1` + Cc1cccc(N(C)C(=O)C2C(O)CCN2c2nc(C)cc(C(F)(F)F)c2C#N)c1 to `C=CC(=O)N1CCN(c2nc(=O)n(-c3c(C)ccnc3C(C)C)c3nc(-c4c(O)cccc4F)c(F)cc23)C(C)C1` (configuration not stated) + Cc1cccc(N(C)C(=O)C2C(O)CCN2c2nc(C)cc(C(F)(F)F)c2C#N)c1, the viability, T/C falls from 122% to 84.2%.

Compared with `CNCc1ccc(-c2[nH]c3cc(F)cc4c3c2CCNC4=O)cc1` + COC1C(OC(N)=O)C(O)C(Oc2ccc3c(O)c(NC(=O)c4ccc(O)c(CC=C(C)C)c4)c(=O)oc3c2C)OC1(C)C, `CC(C)n1c(=O)n(C)c2cnc3cc(F)c(-c4ccc(OCCCN5CCCCC5)nc4)cc3c21` + Cc1cccc(N(C)C(=O)C2C(O)CCN2c2nc(C)cc(C(F)(F)F)c2C#N)c1 is lower in viability, T/C: 97.8% for the first, 86.7% for the second.

Work on `COc1cc2cc(C(=O)CCC(=O)O)sc2cc1OC` + Nc1ccc(C#CCN(C(=O)Cc2ncc(C(F)(F)F)cc2C(F)(F)F)c2ccc(F)cc2)nn1 yielded a viability, T/C of 93.8%.

same assay, conditions: second compound 1 µM; first compound 1 µM; stronger effect = lower value

First: CC1COCCN1c1cc(C2(S(C)(=N)=O)CC2)nc(-c2ccnc3[nH]ccc23)n1 (configuration not stated) + Cc1cccc(N(C)C(=O)C2C(O)CCN2c2nc(C)cc(C(F)(F)F)c2C#N)c1
Second: CC1COCCN1c1cc(-c2ccnn2C)c2ccnc(-c3ccn[nH]3)c2n1 (configuration not stated) + Nc1ccc(C#CCN(C(=O)Cc2ncc(C(F)(F)F)cc2C(F)(F)F)c2ccc(F)cc2)nn1
The viability, T/C of the first is higher: 82.4% for the first, 49.8% for the second.

Compared with `C=CCn1c(=O)c2cnc(Nc3ccc(N4CCN(C)CC4)cc3)nc2n1-c1cccc(C(C)(C)O)n1` + Cc1cccc(N(C)C(=O)C2C(O)CCN2c2nc(C)cc(C(F)(F)F)c2C#N)c1, `C=CC(=O)N1CCN(c2nc(=O)n(-c3c(C)ccnc3C(C)C)c3nc(-c4c(O)cccc4F)c(F)cc23)C(C)C1` (configuration not stated) + Cc1cccc(N(C)C(=O)C2C(O)CCN2c2nc(C)cc(C(F)(F)F)c2C#N)c1 is higher in viability, T/C: 86% for the first, 90.2% for the second.

Going from `CNCc1ccc(-c2[nH]c3cc(F)cc4c3c2CCNC4=O)cc1` + COC1C(OC(N)=O)C(O)C(Oc2ccc3c(O)c(NC(=O)c4ccc(O)c(CC=C(C)C)c4)c(=O)oc3c2C)OC1(C)C to `CC(C)n1c(=O)n(C)c2cnc3cc(F)c(-c4ccc(OCCCN5CCCCC5)nc4)cc3c21` + Cc1cccc(N(C)C(=O)C2C(O)CCN2c2nc(C)cc(C(F)(F)F)c2C#N)c1, the viability, T/C falls from 95.8% to 78.5%.

In the case of `COc1cc2cc(C(=O)CCC(=O)O)sc2cc1OC` + Nc1ccc(C#CCN(C(=O)Cc2ncc(C(F)(F)F)cc2C(F)(F)F)c2ccc(F)cc2)nn1, the viability, T/C is reported as 83.2%.

same assay, conditions: second compound 1 µM; first compound 3.16 µM; stronger effect = lower value

Going from `CC1COCCN1c1cc(C2(S(C)(=N)=O)CC2)nc(-c2ccnc3[nH]ccc23)n1` (configuration not stated) + Cc1cccc(N(C)C(=O)C2C(O)CCN2c2nc(C)cc(C(F)(F)F)c2C#N)c1 to `CC1COCCN1c1cc(-c2ccnn2C)c2ccnc(-c3ccn[nH]3)c2n1` (configuration not stated) + Nc1ccc(C#CCN(C(=O)Cc2ncc(C(F)(F)F)cc2C(F)(F)F)c2ccc(F)cc2)nn1, the viability, T/C falls from 65.8% to 41.3%.

First: CNCc1ccc(-c2[nH]c3cc(F)cc4c3c2CCNC4=O)cc1 + COC1C(OC(N)=O)C(O)C(Oc2ccc3c(O)c(NC(=O)c4ccc(O)c(CC=C(C)C)c4)c(=O)oc3c2C)OC1(C)C
Second: CC(C)n1c(=O)n(C)c2cnc3cc(F)c(-c4ccc(OCCCN5CCCCC5)nc4)cc3c21 + Cc1cccc(N(C)C(=O)C2C(O)CCN2c2nc(C)cc(C(F)(F)F)c2C#N)c1
The viability, T/C of the first is higher: 90.5% for the first, 81% for the second.

First: C=CC(=O)N1CCN(c2nc(=O)n(-c3c(C)ccnc3C(C)C)c3nc(-c4c(O)cccc4F)c(F)cc23)C(C)C1 (configuration not stated) + Cc1cccc(N(C)C(=O)C2C(O)CCN2c2nc(C)cc(C(F)(F)F)c2C#N)c1
Second: COc1cc2cc(C(=O)CCC(=O)O)sc2cc1OC + Nc1ccc(C#CCN(C(=O)Cc2ncc(C(F)(F)F)cc2C(F)(F)F)c2ccc(F)cc2)nn1
The viability, T/C of the first is higher: 106% for the first, 90.1% for the second.

same assay, conditions: second compound 1 µM; first compound 10 µM; stronger effect = lower value

Compared with `CC1COCCN1c1cc(C2(S(C)(=N)=O)CC2)nc(-c2ccnc3[nH]ccc23)n1` (configuration not stated) + Cc1cccc(N(C)C(=O)C2C(O)CCN2c2nc(C)cc(C(F)(F)F)c2C#N)c1, `CC1COCCN1c1cc(-c2ccnn2C)c2ccnc(-c3ccn[nH]3)c2n1` (configuration not stated) + Nc1ccc(C#CCN(C(=O)Cc2ncc(C(F)(F)F)cc2C(F)(F)F)c2ccc(F)cc2)nn1 is lower in viability, T/C: 57.6% for the first, 32.8% for the second.

Going from `CNCc1ccc(-c2[nH]c3cc(F)cc4c3c2CCNC4=O)cc1` + COC1C(OC(N)=O)C(O)C(Oc2ccc3c(O)c(NC(=O)c4ccc(O)c(CC=C(C)C)c4)c(=O)oc3c2C)OC1(C)C to `CC(C)n1c(=O)n(C)c2cnc3cc(F)c(-c4ccc(OCCCN5CCCCC5)nc4)cc3c21` + Cc1cccc(N(C)C(=O)C2C(O)CCN2c2nc(C)cc(C(F)(F)F)c2C#N)c1, the viability, T/C falls from 74.6% to 64.3%.

Compared with `C=CC(=O)N1CCN(c2nc(=O)n(-c3c(C)ccnc3C(C)C)c3nc(-c4c(O)cccc4F)c(F)cc23)C(C)C1` (configuration not stated) + Cc1cccc(N(C)C(=O)C2C(O)CCN2c2nc(C)cc(C(F)(F)F)c2C#N)c1, `COc1cc2cc(C(=O)CCC(=O)O)sc2cc1OC` + Nc1ccc(C#CCN(C(=O)Cc2ncc(C(F)(F)F)cc2C(F)(F)F)c2ccc(F)cc2)nn1 is higher in viability, T/C: 71.3% for the first, 76.8% for the second.

same assay, conditions: second compound 3.16 µM; first compound 0.00316 µM; stronger effect = lower value

`C=CCn1c(=O)c2cnc(Nc3ccc(N4CCN(C)CC4)cc3)nc2n1-c1cccc(C(C)(C)O)n1` + Cc1cccc(N(C)C(=O)C2C(O)CCN2c2nc(C)cc(C(F)(F)F)c2C#N)c1 gave a viability, T/C of 103%.

same assay, conditions: second compound 3.16 µM; first compound 0.01 µM; stronger effect = lower value

`C=CCn1c(=O)c2cnc(Nc3ccc(N4CCN(C)CC4)cc3)nc2n1-c1cccc(C(C)(C)O)n1` + Cc1cccc(N(C)C(=O)C2C(O)CCN2c2nc(C)cc(C(F)(F)F)c2C#N)c1 was tested, and the viability, T/C was 105%.

same assay, conditions: second compound 3.16 µM; first compound 0.0316 µM; stronger effect = lower value

First: CC1COCCN1c1cc(C2(S(C)(=N)=O)CC2)nc(-c2ccnc3[nH]ccc23)n1 (configuration not stated) + Cc1cccc(N(C)C(=O)C2C(O)CCN2c2nc(C)cc(C(F)(F)F)c2C#N)c1
Second: CC1COCCN1c1cc(-c2ccnn2C)c2ccnc(-c3ccn[nH]3)c2n1 (configuration not stated) + Nc1ccc(C#CCN(C(=O)Cc2ncc(C(F)(F)F)cc2C(F)(F)F)c2ccc(F)cc2)nn1
The viability, T/C of the first is higher: 93.9% for the first, 75.9% for the second.

Compared with `C=CCn1c(=O)c2cnc(Nc3ccc(N4CCN(C)CC4)cc3)nc2n1-c1cccc(C(C)(C)O)n1` + Cc1cccc(N(C)C(=O)C2C(O)CCN2c2nc(C)cc(C(F)(F)F)c2C#N)c1, `C=CC(=O)N1CCN(c2nc(=O)n(-c3c(C)ccnc3C(C)C)c3nc(-c4c(O)cccc4F)c(F)cc23)C(C)C1` (configuration not stated) + Cc1cccc(N(C)C(=O)C2C(O)CCN2c2nc(C)cc(C(F)(F)F)c2C#N)c1 is lower in viability, T/C: 104% for the first, 91.2% for the second.

Compared with `CNCc1ccc(-c2[nH]c3cc(F)cc4c3c2CCNC4=O)cc1` + COC1C(OC(N)=O)C(O)C(Oc2ccc3c(O)c(NC(=O)c4ccc(O)c(CC=C(C)C)c4)c(=O)oc3c2C)OC1(C)C, `CC(C)n1c(=O)n(C)c2cnc3cc(F)c(-c4ccc(OCCCN5CCCCC5)nc4)cc3c21` + Cc1cccc(N(C)C(=O)C2C(O)CCN2c2nc(C)cc(C(F)(F)F)c2C#N)c1 is lower in viability, T/C: 99.9% for the first, 94.8% for the second.

With `COc1cc2cc(C(=O)CCC(=O)O)sc2cc1OC` + Nc1ccc(C#CCN(C(=O)Cc2ncc(C(F)(F)F)cc2C(F)(F)F)c2ccc(F)cc2)nn1 the viability, T/C was 96.9%.

same assay, conditions: second compound 3.16 µM; first compound 0.1 µM; stronger effect = lower value

Molecule `CC1COCCN1c1cc(C2(S(C)(=N)=O)CC2)nc(-c2ccnc3[nH]ccc23)n1` (configuration not stated) + Cc1cccc(N(C)C(=O)C2C(O)CCN2c2nc(C)cc(C(F)(F)F)c2C#N)c1 has a viability, T/C of 95.1%.
